Among the data in article PMC3726394, “Selecting β-glucosidases to support cellulases in cellulose saccharification” (Biotechnology for Biofuels, 2013) are Km and Ki values, retold here.

What all share (format): biochemical, Acremonium thermophilum
For assay [1], the system named is T1, AtBG3.
T1 construct: secreted enzyme, heterologously expressed in Trichoderma reesei lacking four major cellulases; gel filtration; 101 kDa
Put plainly: glucose release, hexokinase/G6PDH assay; fit with transglycosylation. To be noted: 25 °C, pH 5.0, 50 mM sodium acetate; hydrolysis constant, substrate inhibition by transglycosylation; read-out: KM(h)(mM)^a / AtBG3.

In assay [2] the target is T1, AtBG3. Put plainly: inhibition of MUG hydrolysis, fluorescence. To be noted: 25 °C, pH 5.0, 2.5 μM MUG; IC50 at [S] << KM taken as Ki; competitive inhibition assumed; read-out: AtBG3^b. The text has this: inhibition of MUG hydrolysis, fluorescence on AtBG3
Assay [3] relates to T1, AtBG3. Put plainly: pNP release, absorbance […] nm; fit with transglycosylation. Conditions: 25 °C, pH 5.0, 50 mM sodium acetate; hydrolysis constant, substrate inhibition by transglycosylation; read-out: KM(h).

As for `OC[C@H]1O[C@@H](O[C@H]2[C@H](O)[C@@H](O)C(O)O[C@@H]2CO)[C@H](O)[C@@H](O)[C@@H]1O` (stereo partly drawn) [cellobiose], the Km in the assay with AtBG3 [1] stood at 0.29 ± 0.07 mM. With `OC[C@H]1OC(O)[C@H](O)[C@@H](O)[C@@H]1O` (stereo partly drawn) [glucose], the Ki at AtBG3 [2] was determined as 220 µM. For `O=[N+]([O-])c1ccc(O[C@@H]2O[C@H](CO)[C@@H](O)[C@H](O)[C@H]2O)cc1` [para-nitrophenyl-β-glucoside], the Km with AtBG3 [3] was found to be 95 ± 3 µM.
